# Legend:
# [1] = target: T1, aldehyde dehydrogenase (ALDH) (Saccharomyces cerevisiae, UniProt P46367); assay: Aldehyde dehydrogenase (ALDH) activity assay, conversion of acetaldehyde into acetic acid; type: biochemical; settings: 5, 50 or 500 μg/mL, relative to ALDH activity in the absence of ginsenoside (FIG. 3)
# T1 construct: purchased Sigma-Aldrich A 6338
# T1 sequence (P46367 25-519): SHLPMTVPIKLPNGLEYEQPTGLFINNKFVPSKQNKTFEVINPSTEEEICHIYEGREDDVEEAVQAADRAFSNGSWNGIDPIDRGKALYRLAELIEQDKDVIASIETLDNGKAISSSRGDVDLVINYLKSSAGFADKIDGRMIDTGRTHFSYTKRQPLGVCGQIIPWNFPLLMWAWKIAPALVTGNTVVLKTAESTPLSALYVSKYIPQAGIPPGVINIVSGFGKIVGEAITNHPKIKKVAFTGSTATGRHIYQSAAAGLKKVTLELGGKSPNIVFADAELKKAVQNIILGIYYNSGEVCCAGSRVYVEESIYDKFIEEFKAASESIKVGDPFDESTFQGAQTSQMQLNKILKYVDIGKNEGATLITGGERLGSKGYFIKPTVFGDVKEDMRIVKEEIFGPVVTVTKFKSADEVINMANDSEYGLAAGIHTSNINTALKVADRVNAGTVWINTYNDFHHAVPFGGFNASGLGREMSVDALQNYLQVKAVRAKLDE
# Protocol: Stock solutions of ginsenosides Rb1, Rb2, Rc, Rd, Re and Rg1 in DMSO as described above, were prepared. ALDH was obtained from Sigma-Aldrich (product no. A 6338). Enzyme activity assays were performed in vitro according to instructions supplied by the vendor as modified by the addition of test substances, which is based on assay described in Bostian et al., Biochemical Journal 1978, 173, 773-786, the contents of which are incorporated by reference herein in their entirety. This assay measures the conversion of acetaldehyde into acetic acid via […] by ALDH catalysis.
# [2] = test system: alcohol dehydrogenase (ADH); assay: Alcohol dehydrogenase (ADH) activity, colorimetric assay; type: biochemical; settings: 5, 50 or 500 μg/mL, relative to ADH activity in the absence of ginsenoside (FIG. 1)
# Protocol: Ginsenosides Rb1, Rb2, Rc, Rd, Re and Rg1 were obtained from ChromaDex Inc., Irvine, Calif., USA. The ginsenosides were dissolved in DMSO to prepare a stock solution. Prior to performing an activity assay, portions of a ginsenosides stock solution were diluted in aqueous reaction buffer solution and from which samples were taken and assayed for activity.
# ADH activity was measured in a colorimetric assay as described in Gibla and Gonzalex-Durante, J. Biochem. Biophys. Methods 1993, 26, 87-93, the contents of which are incorporated by reference herein in its entirety.
Compound,effect on ALDH activity [1],effect on ADH activity [2]
CC(C)=CCC[C@](C)(O[C@@H]1O[C@H](CO[C@@H]2O[C@H](CO)[C@@H](O)[C@H](O)[C@H]2O)[C@@H](O)[C@H](O)[C@H]1O)[C@H]1CC[C@]2(C)[C@@H]1[C@H](O)C[C@@H]1[C@@]3(C)CC[C@H](O[C@@H]4O[C@H](CO)[C@@H](O)[C@H](O)[C@H]4O[C@@H]4O[C@H](CO)[C@@H](O)[C@H](O)[C@H]4O)C(C)(C)[C@@H]3CC[C@]12C [ginsenoside Rb1],increased ALDH activity,reduced ADH activity
CC(C)=CCC[C@](C)(O[C@@H]1O[C@H](CO[C@@H]2OC[C@H](O)[C@H](O)[C@H]2O)[C@@H](O)[C@H](O)[C@H]1O)[C@H]1CC[C@]2(C)[C@@H]1[C@H](O)C[C@@H]1[C@@]3(C)CC[C@H](O[C@@H]4O[C@H](CO)[C@@H](O)[C@H](O)[C@H]4O[C@@H]4O[C@H](CO)[C@@H](O)[C@H](O)[C@H]4O)C(C)(C)[C@@H]3CC[C@]12C [ginsenoside Rb2],increased ALDH activity,reduced ADH activity
CC(C)=CCC[C@](C)(O[C@@H]1O[C@H](CO[C@@H]2O[C@@H](CO)[C@H](O)[C@H]2O)[C@@H](O)[C@H](O)[C@H]1O)[C@H]1CC[C@]2(C)[C@@H]1[C@H](O)C[C@@H]1[C@@]3(C)CC[C@H](O[C@@H]4O[C@H](CO)[C@@H](O)[C@H](O)[C@H]4O[C@@H]4O[C@H](CO)[C@@H](O)[C@H](O)[C@H]4O)C(C)(C)[C@@H]3CC[C@]12C [ginsenoside Rc],increased ALDH activity,reduced ADH activity
CC(C)=CCC[C@](C)(O[C@@H]1O[C@H](CO)[C@@H](O)[C@H](O)[C@H]1O)[C@H]1CC[C@]2(C)[C@@H]1[C@H](O)C[C@@H]1[C@@]3(C)CC[C@H](O[C@@H]4O[C@H](CO)[C@@H](O)[C@H](O)[C@H]4O[C@@H]4O[C@H](CO)[C@@H](O)[C@H](O)[C@H]4O)C(C)(C)[C@@H]3CC[C@]12C [ginsenoside Rd],increased ALDH activity,reduced ADH activity
"CC(C)=CCC[C@](C)(O[C@@H]1O[C@H](CO)[C@@H](O)[C@H](O)[C@H]1O)[C@H]1CC[C@]2(C)[C@@H]1[C@H](O)C[C@@H]1[C@@]3(C)CC[C@H](O)C(C)(C)[C@@H]3[C@@H](O[C@@H]3O[C@H](CO)[C@@H](O)[C@H](O)[C@H]3O[C@@H]3O[C@@H](C)[C@H](O)[C@@H](O)[C@H]3O)C[C@]12C [ginsenoside Re, reference compound]",did not have a significant effect on ALDH activity,did not have a significant effect on ADH activity
"CC(C)=CCC[C@](C)(O[C@@H]1O[C@H](CO)[C@@H](O)[C@H](O)[C@H]1O)[C@H]1CC[C@]2(C)[C@@H]1[C@H](O)C[C@@H]1[C@@]3(C)CC[C@H](O)C(C)(C)[C@@H]3[C@@H](O[C@@H]3O[C@H](CO)[C@@H](O)[C@H](O)[C@H]3O)C[C@]12C [ginsenoside Rg1, reference compound]",did not have a significant effect on ALDH activity,did not have a significant effect on ADH activity
